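Five concentrations, 48 hours, 96-well plates. Here, GI50 denotes the concentration required for 50% inhibition of growth. TGI: total growth inhibition.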
Key:
Test in all cases: NCI tumour cell line growth inhibition, 48 h
MOLT-4 leukemia = tested on: MOLT-4 leukemia
786-0 renal = tested on: 786-0 renal
ACHN renal = tested on: ACHN renal
T-47D breast = tested on: T-47D breast
K-562 leukemia = tested on: K-562 leukemia
HS 578T breast = tested on: HS 578T breast
A498 renal = tested on: A498 renal
CAKI-1 renal = tested on: CAKI-1 renal
KM12 colon = tested on: KM12 colon
MDA-MB-231 breast = tested on: MDA-MB-231 breast

| SMILES | GI50 (MOLT-4 leukemia) [µM] | TGI (MOLT-4 leukemia) [µM] | GI50 (786-0 renal) [µM] | TGI (786-0 renal) [µM] | GI50 (ACHN renal) [µM] | TGI (ACHN renal) [µM] | GI50 (T-47D breast) [µM] | TGI (T-47D breast) [µM] | GI50 (K-562 leukemia) [µM] | TGI (K-562 leukemia) [µM] | GI50 (HS 578T breast) [µM] | TGI (HS 578T breast) [µM] | GI50 (A498 renal) [µM] | TGI (A498 renal) [µM] | GI50 (CAKI-1 renal) [µM] | TGI (CAKI-1 renal) [µM] | GI50 (KM12 colon) [µM] | TGI (KM12 colon) [µM] | GI50 (MDA-MB-231 breast) [µM] | TGI (MDA-MB-231 breast) [µM] |
| --- | --- | --- | --- | --- | --- | --- | --- | --- | --- | --- | --- | --- | --- | --- | --- | --- | --- | --- | --- | --- |
| CCC1OC(/C(C)=C/C(C)/C=C/C2C(C)C2/C=C/C2OC(CC(=O)O)CC(O)C2O)CC=C1C (centres undefined) | > 50 | > 50 | > 50 | > 50 | > 50 | > 50 | > 50 | > 50 | > 50 | > 50 | > 50 | > 50 | > 50 | > 50 | > 50 | > 50 | > 50 | > 50 | – | – |
| Cc1cc(S(=O)(=O)Nc2nc3cc(-c4ccsc4)sc3c(=O)n2N)c(S)cc1Cl | 68 | > 100 | 90.9 | > 100 | 30.4 | > 100 | 28.8 | > 100 | 52 | > 100 | 35.7 | > 100 | – | – | > 100 | > 100 | 68.6 | > 100 | 15.7 | > 100 |
| Cc1cc(O)c2c(c1)C(=O)C(c1c(C)cc3c(c1O)C(=O)C1OC1C3=O)=CC2=O (centres undefined) | – | – | – | 4.16 | – | 2.36 | – | > 100 | – | – | – | 98.9 | – | 14.3 | – | 2.11 | – | 28.8 | – | 4.14 |
| COC(=O)c1nn(C(=N)c2ccc(Cl)cc2)c2c1CCCCC2 | – | > 100 | – | > 100 | – | > 100 | – | – | – | > 100 | – | – | – | > 100 | – | > 100 | – | > 100 | – | – |
| CCOC(=O)/C(C#N)=C(N)/C(=N\Nc1cccc(C(F)(F)F)c1)C(=O)OCC | – | > 100 | – | > 100 | – | > 100 | – | – | – | – | – | – | – | > 100 | – | > 100 | – | – | – | – |
| O=c1cccccc1NCCNc1cccccc1=O | – | > 100 | – | > 100 | – | > 100 | – | – | – | > 100 | – | – | – | – | – | > 100 | – | > 100 | – | – |
| CNC(C)Cc1ccc(O)cc1 (centres undefined) | – | > 100 | – | > 100 | – | > 100 | – | – | – | > 100 | – | – | – | > 100 | – | > 100 | – | > 100 | – | – |
| N[C@H](C(=O)O)[C@@H](Cl)CC(=O)O | – | > 100 | – | > 100 | – | > 100 | – | – | – | > 100 | – | – | – | > 100 | – | > 100 | – | > 100 | – | – |
| C(#Cc1ccccc1C#Cc1ccccn1)c1ccccn1 | 3.44 | 20.1 | 18.3 | > 100 | 15.6 | 29.6 | 19.4 | 46.3 | 7.02 | 27.1 | – | – | 18 | 34.6 | 18.3 | 42.5 | 11 | 22.9 | 16.6 | 36.6 |
| CN(C)c1ccc(N=C(C#N)c2nc(N)nc(N3CCN(c4ccccc4)CC3)n2)cc1 | > 50 | > 50 | > 50 | > 50 | 22.3 | > 50 | > 50 | > 50 | > 50 | > 50 | – | – | – | – | 20.4 | > 46.7 | 49.6 | > 50 | 10.7 | 31.3 |
| CC[C@H](C)[C@H](NC(=O)c1nccn1C)C(=O)N(C)[C@H](C[C@@H](OC(C)=O)c1nc(C(=O)N[C@@H](Cc2ccccc2)C[C@H](C)C(=O)OC)cs1)C(C)C | 1.65 | > 33.3 | 1.17 | 14.5 | 2.06 | > 33.3 | > 33.3 | > 33.3 | 0.796 | > 33.3 | 1.11 | > 33.3 | 1.11 | > 33.3 | – | – | 0.553 | > 33.3 | 1.17 | 22 |
| [N-]=[N+]=Nc1c(Br)c(=O)[nH]c(=O)n1COCCO | – | > 100 | – | > 100 | – | > 100 | – | – | – | > 100 | – | – | – | – | – | > 100 | – | > 100 | – | – |
| Cc1ccc(/C=C2\CN(Cc3cn(CCNc4ccnc5cc(Cl)ccc45)nn3)C/C(=C\c3ccc(C)cc3)C2=O)cc1 | – | – | 1.85 | 3.36 | 1.78 | 3.25 | 2.5 | 6.53 | – | – | 1.97 | 5.53 | 0.85 | 2.2 | – | – | 1.65 | 3.28 | 2.14 | 4.62 |
| C/C=C/C(=O)[O-].N.N.N.N.N.[Co+3].[O-][Cl+3]([O-])([O-])[O-] | > 100 | > 100 | > 100 | > 100 | > 100 | > 100 | – | – | > 100 | > 100 | – | – | > 100 | > 100 | – | – | > 100 | > 100 | – | – |
| COc1cc2c3c(c1OC)Oc1ccc(cc1)CC1c4c(cc(OC)c(OC)c4Oc4ccc(cc4)CC3N(C)CC2)CCN1C (centres undefined) | – | 63.2 | – | 53 | – | > 100 | – | – | – | 35.5 | – | – | – | 34 | – | > 100 | – | > 100 | – | – |
| O=C1C2=C(c3ccccc31)C(c1ccc(Cl)cc1)NC(=S)N2 (centres undefined) | – | 41.3 | – | 34 | – | > 100 | – | – | – | 40.2 | – | – | – | > 100 | – | 78.3 | – | 52.5 | – | – |
| CCN(CC)CCOc1nc2cc(OC)c(OC)cc2c2c1-c1ccc(OC)cc1C2=O | 1.91 | 17.6 | 15.7 | 30.3 | 11.5 | 23.8 | 18.4 | 38.2 | 2.06 | 5.01 | 20.4 | 44.9 | – | – | 10.3 | 22.5 | 1.51 | 2.87 | 13 | 26.9 |
| COC(=O)/C(=N/O)C(C(=O)OC)C(=O)C(=O)Nc1c(Cl)cc(C)cc1S(=O)(=O)O (centres undefined) | – | > 100 | – | > 100 | – | > 100 | – | – | – | > 100 | – | – | – | > 100 | – | > 100 | – | > 100 | – | – |
